Experiment [1] has as its target T1, bacterial α-glucosidase CjAgd31B (Cellvibrio japonicus, UniProt B3PEE6).
T1 construct: made in house
T1 sequence (B3PEE6 25-816): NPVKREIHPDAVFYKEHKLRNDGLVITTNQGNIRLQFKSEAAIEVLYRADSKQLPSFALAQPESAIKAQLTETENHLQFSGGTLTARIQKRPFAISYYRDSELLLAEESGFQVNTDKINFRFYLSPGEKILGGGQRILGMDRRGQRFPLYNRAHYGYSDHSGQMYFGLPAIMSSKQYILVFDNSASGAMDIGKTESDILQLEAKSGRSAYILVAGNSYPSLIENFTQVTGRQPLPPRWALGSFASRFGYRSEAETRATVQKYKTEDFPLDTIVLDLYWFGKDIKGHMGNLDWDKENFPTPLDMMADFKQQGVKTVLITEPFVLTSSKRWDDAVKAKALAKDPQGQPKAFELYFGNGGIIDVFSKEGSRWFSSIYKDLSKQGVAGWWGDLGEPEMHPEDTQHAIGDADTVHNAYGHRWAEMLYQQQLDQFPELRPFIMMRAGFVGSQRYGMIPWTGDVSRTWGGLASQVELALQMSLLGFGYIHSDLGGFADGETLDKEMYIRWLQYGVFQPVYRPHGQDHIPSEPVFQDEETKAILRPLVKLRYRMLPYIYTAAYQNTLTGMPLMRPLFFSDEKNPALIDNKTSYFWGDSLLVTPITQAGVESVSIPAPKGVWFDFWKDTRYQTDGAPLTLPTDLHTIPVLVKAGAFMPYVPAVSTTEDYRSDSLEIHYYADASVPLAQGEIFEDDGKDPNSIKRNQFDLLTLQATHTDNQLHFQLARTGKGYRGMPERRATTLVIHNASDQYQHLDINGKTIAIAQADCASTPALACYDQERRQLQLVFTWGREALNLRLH
Description: thermal shift assay of CjAgd31B with Sypro Orange dye. Format: binding. Conditions: 2 μM CjAgd31B, 0-1000 μM inhibitor, pH 6.5.

Another experiment addresses T2, sucrase-isomaltase (SI) (Mus musculus, UniProt B5THE3).
T2 construct: cABPP in mouse intestine homogenates; from tissue; host or cells: duodenum of wild type mice
Description: competitive ABPP in mouse intestine homogenates, SI. Type of experiment: biochemical. Conditions: mouse duodenum extracts; 0-100 μM; 30 min 37 °C. How it is done: Inhibition of gastrointestinal α-glucosidases with antidiabetic drugs has been related to undesired effects, including flatulence, diarrhea, and abdominal pain. Cyclosulfamidate 4 inhibits SI and MGAM but does so about a 100-fold less potently than it inhibits rhGAA or GANAB, and we conclude that it has a more beneficial therapeutic window in this regard compared to NB-DNJ 2.
Figure 2 Competitive ABPP (cABPP) in mouse intestine homogenates. […]
After preincubation, 25 μL of E+I mixture was added to a 96 wells plate and 100 μL substrate solution in the appropriate buffer was subsequently added. GAA activity was measured using final concentrations of 47 nM enzyme (Myozyme) and 3.0 mM 4-MU-α-D-glucopyranoside, for 30 minutes at 37 ℃. GANAB activity was measured using wt fibroblasts and 2.4 mM 4-MU-α-D-glucopyranoside, for 2 h at 37 ℃. GBA1 activity was measured using final concentrations of 0.7 nM enzyme (Cerezyme) and 3.0 mM 4-methylumbeliferone(4-MU)-β-D-glucopyranoside, for 30 min at 37 ℃. GBA2 residual activity was measured using cellular homogenates of HEK293T over-expressing GBA2 pre-incubated for 30 min with a GBA1 inhibitor (1 µM 37 (ME656), see Figure S1 for chemical structure), and further incubation with 3.0 mM 4-methylumbeliferone(4MU)-β-D-glucopyranoside […]

Each structure is given as a SMILES string. pEC50: −log10 of the molar value.

By pEC50 is commonly meant the negative decadic logarithm of the EC50, by convention in mol/L.

T2 sequence (B5THE3 1-1818): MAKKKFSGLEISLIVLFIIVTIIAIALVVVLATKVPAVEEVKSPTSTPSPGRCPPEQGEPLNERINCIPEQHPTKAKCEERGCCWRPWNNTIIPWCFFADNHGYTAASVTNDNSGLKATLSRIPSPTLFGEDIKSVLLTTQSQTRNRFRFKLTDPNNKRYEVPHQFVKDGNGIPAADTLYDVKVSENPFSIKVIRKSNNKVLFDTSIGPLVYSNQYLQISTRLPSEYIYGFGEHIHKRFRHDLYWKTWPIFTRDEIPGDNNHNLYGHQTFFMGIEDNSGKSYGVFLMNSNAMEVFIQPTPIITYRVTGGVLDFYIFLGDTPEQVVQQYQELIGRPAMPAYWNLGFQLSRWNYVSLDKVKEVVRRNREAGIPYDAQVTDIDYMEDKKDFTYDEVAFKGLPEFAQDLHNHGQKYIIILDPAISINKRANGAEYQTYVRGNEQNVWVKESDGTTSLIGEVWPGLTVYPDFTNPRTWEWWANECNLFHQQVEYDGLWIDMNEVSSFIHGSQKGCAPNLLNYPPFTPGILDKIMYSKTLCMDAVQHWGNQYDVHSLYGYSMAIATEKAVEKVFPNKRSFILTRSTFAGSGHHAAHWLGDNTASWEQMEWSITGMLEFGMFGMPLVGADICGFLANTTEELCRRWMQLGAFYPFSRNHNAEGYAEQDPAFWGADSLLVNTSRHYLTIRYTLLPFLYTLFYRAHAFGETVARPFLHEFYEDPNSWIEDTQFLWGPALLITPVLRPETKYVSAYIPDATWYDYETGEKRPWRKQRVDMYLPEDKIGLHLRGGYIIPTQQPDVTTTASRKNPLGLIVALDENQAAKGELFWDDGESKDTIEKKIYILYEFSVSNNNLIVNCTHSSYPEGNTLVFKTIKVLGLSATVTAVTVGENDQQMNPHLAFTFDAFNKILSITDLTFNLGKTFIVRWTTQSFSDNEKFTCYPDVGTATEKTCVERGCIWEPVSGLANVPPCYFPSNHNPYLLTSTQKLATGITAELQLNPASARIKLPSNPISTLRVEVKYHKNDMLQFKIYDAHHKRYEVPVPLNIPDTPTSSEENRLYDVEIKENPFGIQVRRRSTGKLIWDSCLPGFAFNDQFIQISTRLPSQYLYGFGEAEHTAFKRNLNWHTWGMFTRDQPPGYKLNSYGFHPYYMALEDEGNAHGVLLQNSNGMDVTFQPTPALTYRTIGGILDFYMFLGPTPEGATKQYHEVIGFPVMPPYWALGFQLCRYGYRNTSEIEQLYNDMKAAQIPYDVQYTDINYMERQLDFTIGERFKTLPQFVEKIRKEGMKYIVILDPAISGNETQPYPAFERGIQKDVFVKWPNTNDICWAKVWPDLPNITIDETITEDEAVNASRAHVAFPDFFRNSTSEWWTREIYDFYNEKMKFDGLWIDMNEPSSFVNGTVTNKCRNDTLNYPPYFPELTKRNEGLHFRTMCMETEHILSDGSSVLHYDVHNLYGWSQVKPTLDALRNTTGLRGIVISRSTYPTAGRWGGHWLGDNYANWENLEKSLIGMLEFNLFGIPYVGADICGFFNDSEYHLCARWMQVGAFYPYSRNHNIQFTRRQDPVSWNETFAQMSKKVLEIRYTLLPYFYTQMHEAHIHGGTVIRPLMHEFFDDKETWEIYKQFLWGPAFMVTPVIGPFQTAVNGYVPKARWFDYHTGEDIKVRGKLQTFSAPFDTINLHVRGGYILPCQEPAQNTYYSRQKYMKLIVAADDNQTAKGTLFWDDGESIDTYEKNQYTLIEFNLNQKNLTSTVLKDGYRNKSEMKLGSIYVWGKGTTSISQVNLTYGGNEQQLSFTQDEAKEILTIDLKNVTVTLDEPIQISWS

With `O=S1(=O)N[C@@H]2[C@H](O)[C@@H](O)[C@H](O)[C@@H](CO)[C@@H]2O1` [compound 4, 1,6-epi-cyclophellitol cyclosulfamidate], the ΔTmmax in experiment [1] came to 5.2 °C. The pEC50 in experiment [1] (read-out: EC50 of thermal stabilization) is 3.87. The “inhibition of SI by cABPP, in words” value on sucrase-isomaltase (SI) was “inhibit”.

Values taken from publication PMC9389588, “1,6-epi-Cyclophellitol Cyclosulfamidate Is a Bona Fide Lysosomal α-Glucosidase Stabilizer for the Treatment of Pompe Disease” (Journal of the American Chemical Society, 2022).
